In ChEMBL document CHEMBL1146701, “Discovery of a novel bicycloproline P2 bearing peptidyl alpha-ketoamide LY514962 as HCV protease inhibitor” (Bioorg Med Chem Lett, 2004):
Each block holds one compound with its values, some of them ahead of it.

What was measured:
[1] = system: Hepatitis C virus NS3 protease; assay: Inhibitory activity against Protease using replicon assay […] at 25 uM concentration; settings: Rattus norvegicus
Huh-7 (Homo sapiens) = assay: Cytotoxic activity against human hepatoma Huh-7 cells at 100 uM concentration
Rattus norvegicus [2] = assay: In vivo concentration in rat liver exposure 0-8 hour after oral administration 50 mg/kg; type: ADME, organism-based; set-up: dose 50 mg/kg, route oral
[3] = In vivo maximum concentration in rat plasma exposure after oral administration 50 mg/kg; type: ADME, organism-based; set-up: dose 50 mg/kg, route oral
Rattus norvegicus [4] = assay: In vivo area under curve in rat plasma exposure after oral administration 50 mg/kg; type: ADME, organism-based; set-up: dose 50 mg/kg, route oral
[5] = In vivo concentration in rat liver exposure 8 hour after oral administration 50 mg/kg; type: ADME, organism-based; set-up: dose 50 mg/kg, route oral; settings: read-out: C
[6] = In vivo concentration in rat plasma exposure at 8 hour after oral administration 50 mg/kg; type: ADME, organism-based; set-up: dose 50 mg/kg, route oral; settings: read-out: C
Rattus norvegicus [7] = organism: Rattus norvegicus; assay: Inhibitory activity against Protease using replicon assay […] at 25 uM concentration
[8] = target: Kallikrein-1 (Homo sapiens) (UniProt P06870); assay: Inhibitory activity against kallikrein; settings: concentration not given here
Sequence of Kallikrein-1 (Homo sapiens) (P06870 25-262 limits assumed): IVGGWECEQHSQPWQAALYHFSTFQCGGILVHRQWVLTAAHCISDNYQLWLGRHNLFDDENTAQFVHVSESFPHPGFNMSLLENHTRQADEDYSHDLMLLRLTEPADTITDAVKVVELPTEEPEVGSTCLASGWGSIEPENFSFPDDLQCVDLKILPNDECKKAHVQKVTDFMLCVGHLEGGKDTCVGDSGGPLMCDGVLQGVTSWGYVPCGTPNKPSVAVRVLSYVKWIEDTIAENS

[9] = target: Prothrombin (Homo sapiens) (UniProt P00734); assay: Inhibitory activity against thrombin; settings: concentration not given here
[10] = target: Serine protease 1 (Homo sapiens) (UniProt P07477); assay: Inhibitory activity against trypsin; settings: concentration not given here
Sequence of Serine protease 1 (Homo sapiens) (P07477 whole entry): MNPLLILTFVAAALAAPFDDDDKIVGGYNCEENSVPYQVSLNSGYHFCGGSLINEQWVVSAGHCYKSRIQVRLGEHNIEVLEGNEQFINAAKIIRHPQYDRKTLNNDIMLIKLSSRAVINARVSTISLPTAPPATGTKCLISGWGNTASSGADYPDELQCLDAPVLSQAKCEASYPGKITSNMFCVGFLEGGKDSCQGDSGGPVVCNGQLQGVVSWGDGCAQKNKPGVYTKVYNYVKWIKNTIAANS

[11] = target: Plasminogen (Rattus norvegicus) (UniProt Q01177); assay: Inhibitory activity against plasmin; settings: concentration not given here
Sequence of Plasminogen (Rattus norvegicus) (Q01177 97-581 limits assumed): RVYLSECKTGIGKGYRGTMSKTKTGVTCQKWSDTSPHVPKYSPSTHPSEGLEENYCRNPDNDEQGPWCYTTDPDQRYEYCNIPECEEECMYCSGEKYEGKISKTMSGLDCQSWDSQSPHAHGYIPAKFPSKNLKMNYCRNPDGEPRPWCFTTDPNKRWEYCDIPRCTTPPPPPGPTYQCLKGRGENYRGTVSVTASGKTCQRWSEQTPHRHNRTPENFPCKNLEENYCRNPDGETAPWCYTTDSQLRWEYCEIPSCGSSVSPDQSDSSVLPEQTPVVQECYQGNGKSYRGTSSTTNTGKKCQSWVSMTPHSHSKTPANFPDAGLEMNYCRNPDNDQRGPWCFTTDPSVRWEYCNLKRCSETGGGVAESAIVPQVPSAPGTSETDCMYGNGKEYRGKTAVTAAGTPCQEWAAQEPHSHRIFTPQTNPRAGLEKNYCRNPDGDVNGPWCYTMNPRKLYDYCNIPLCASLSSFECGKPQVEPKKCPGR
Sequence of Plasminogen (Rattus norvegicus) (Q01177 582-812 limits assumed): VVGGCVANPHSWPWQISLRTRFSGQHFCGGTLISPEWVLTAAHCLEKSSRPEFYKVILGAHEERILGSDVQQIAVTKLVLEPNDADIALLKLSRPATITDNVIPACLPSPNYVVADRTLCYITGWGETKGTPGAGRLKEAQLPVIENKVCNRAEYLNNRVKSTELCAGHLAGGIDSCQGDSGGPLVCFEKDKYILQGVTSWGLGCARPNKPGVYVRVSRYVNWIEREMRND

[12] = system: Hepatitis C virus NS3 protease; assay: Cytotoxic activity against Protease in […] Huh-7 cells at 100 uM

SMILES: CCCC(NC(=O)[C@@H]1[C@H]2CC[C@H](F)[C@H]2CN1C(=O)[C@@H](NC(=O)[C@@H](NC(=O)c1cnccn1)C(C)C)C(C)C)C(=O)C(=O)N[C@@H](Cc1ccccc1)C(=O)O (stereo not given in full)
- inhibition [1]: -8%

SMILES: CCCC(NC(=O)[C@@H]1[C@H]2CCC[C@H]2CN1C(=O)[C@@H](NC(=O)[C@@H](NC(=O)c1cnccn1)C(C)C)C(C)C)C(=O)C(=O)NC1CC1 (stereo not given in full)
- Caverage (Rattus norvegicus [2]): 6.29 µM
- Cmax [3]: 2250 ng/mL
- AUC (Rattus norvegicus [4]): 2.86 µg/h/mL
- concentration at 8 h [5]: 500 nM
- concentration at 8 h [6]: 10 ng/mL
- inhibition (Rattus norvegicus [7]): 93%
- inhibition [8]: 0%
- inhibition [9]: 12%
- inhibition [10]: 0%
- inhibition [11]: 5%

SMILES: CCCC(NC(=O)[C@@H]1[C@H]2CC[C@H](F)[C@H]2CN1C(=O)[C@@H](NC(=O)[C@@H](NC(=O)c1cnccn1)C(C)C)C(C)C)C(=O)C(=O)NC1CC1 (stereo not given in full)
- inhibition [1]: 84%

SMILES: CCCC(NC(=O)[C@@H]1[C@H]2CC[C@@H](OCOC)C2CN1C(=O)[C@@H](NC(=O)[C@@H](NC(=O)c1cnccn1)C(C)C)C(C)C)C(=O)C(=O)N[C@@H](C)c1ccccc1 (stereo not given in full)
- inhibition [1]: 98%

SMILES: CCCC(NC(=O)[C@@H]1[C@H]2CCC(F)(F)[C@H]2CN1C(=O)[C@@H](NC(=O)[C@@H](NC(=O)c1cnccn1)C(C)C)C(C)C)C(=O)C(=O)NC1CC1 (stereo not given in full)
- inhibition [1]: 64%

Second part, led by results:

- inhibition [1]: 91%
SMILES: CCCC(NC(=O)[C@@H]1[C@H]2CC=C[C@H]2CN1C(=O)[C@@H](NC(=O)[C@@H](NC(=O)c1cnccn1)C(C)C)C(C)C)C(=O)C(=O)N[C@@H](C)CC (stereo not given in full)

- inhibition [1]: 97%
SMILES: CCCC(NC(=O)[C@@H]1[C@H]2CC=C[C@H]2CN1C(=O)[C@@H](NC(=O)[C@@H](NC(=O)c1cnccn1)C(C)C)C(C)C)C(=O)C(=O)N[C@@H](C)c1ccccc1 (stereo not given in full)
- inhibition (Huh-7 (Homo sapiens)): 33%

- inhibition [1]: 97%
SMILES: CCCC(NC(=O)[C@@H]1[C@H]2CC[C@H](F)[C@H]2CN1C(=O)[C@@H](NC(=O)[C@@H](NC(=O)c1cnccn1)C(C)C)C(C)C)C(=O)C(=O)N[C@@H](C)c1ccccc1 (stereo not given in full)
- inhibition [12]: 33%

- inhibition (Rattus norvegicus [7]): 97%
SMILES: CCCC(NC(=O)[C@@H]1[C@H]2CCC[C@H]2CN1C(=O)[C@@H](NC(=O)[C@@H](NC(=O)c1cnccn1)C(C)C)C(C)C)C(=O)C(=O)N[C@@H](C)c1ccccc1 (stereo not given in full)
